Measurements reported in PubChem BioAssay (NCI).
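These data come from cells grown in 96-well plates and exposed to compound for 48 hours at five concentrations. Abbreviation: GI50, concentration required for 50% inhibition of growth. TGI marks complete inhibition of growth.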

Assays:
Assay in all cases: growth of human tumour cells (NCI), 48 h
[1] = tested on: HCC-2998 colon
[2] = tested on: HCT-116 colon
[3] = tested on: NCI-H226 lung
[4] = tested on: MCF7 breast
[5] = tested on: OVCAR-5 ovarian
[6] = tested on: LOX IMVI melanoma
[7] = tested on: K-562 leukemia
[8] = tested on: NCI-H522 lung
[9] = tested on: OVCAR-4 ovarian
[10] = tested on: SF-295 CNS

`NNc1nc(-c2ccccn2)nc2sc3c(c12)CCCCCC3` was tested, and the GI50 [1] was 8.31 µM, the TGI [1] was greater than 100 µM and the GI50 [2] was 3530 nM. The TGI [2] was greater than 100 µM, the GI50 [3] was 10300 nM and the TGI [3] was 89.1 µM. It also gave a GI50 [4] of 3840 nM, a TGI [4] greater than 100 µM and a GI50 [5] of 8.61 µM. It also gave a TGI [5] greater than 100 µM, a GI50 [6] of 6170 nM and a TGI [6] greater than 100 µM. For the same compound, the GI50 [7] was 3780 nM, the TGI [7] was greater than 100 µM and the GI50 [8] was 12100 nM. The TGI [8] was 68.3 µM, the GI50 [9] was 10.4 µM and the TGI [9] was greater than 100 µM.
With `O=C1/C(=c2\c3ccccc3n3c(=O)c4ccccc4nc23)Nc2ccccc21` the TGI [1] was greater than 100 µM, the TGI [2] was greater than 100 µM and the TGI [3] was greater than 100 µM. It also gave a TGI [4] greater than 100 µM, a TGI [10] greater than 100 µM and a TGI [5] greater than 100 µM. It also gave a TGI [6] greater than 100 µM, a TGI [7] greater than 100 µM and a TGI [8] greater than 100 µM. It also gave a TGI [9] greater than 100 µM.
`N=C(N)c1ccc(-c2ccc(-c3ccco3)o2)cc1F` was tested, and the GI50 [1] was 1.94 µM, the TGI [1] was 3.8 µM and the GI50 [2] was 1690 nM. It also gave a TGI [2] of 3.49 µM, a GI50 [3] of 2610 nM and a TGI [3] of 13.6 µM. It also gave a GI50 [4] of 1830 nM, a TGI [4] of 4.84 µM and a GI50 [10] of 1670 nM. It also gave a TGI [10] of 3.81 µM, a GI50 [5] of 2.7 µM and a TGI [5] of 10.3 µM. The GI50 [6] was 1600 nM, the TGI [6] was 3.05 µM and the GI50 [7] was 1580 nM. For the same compound, the TGI [7] was 3.82 µM, the GI50 [8] was 2310 nM and the TGI [8] was 6 µM. The GI50 [9] was 2.88 µM and the TGI [9] was 11.1 µM.
`COc1ccc2c(c1)N(CCO)C1=C(C(=O)OC1)C2c1cccc(Br)c1` (stereo not drawn) showed a GI50 [1] of 0.184 µM, a TGI [1] of 15.7 µM and a GI50 [2] of 50 nM. For the same compound, the TGI [2] was 2.88 µM, the GI50 [3] was 175 nM and the TGI [3] was 2.56 µM. The GI50 [4] was 39.1 nM, the TGI [4] was greater than 100 µM and the GI50 [10] was 31.9 nM. For the same compound, the TGI [10] was 1.52 µM, the GI50 [5] was 0.466 µM and the TGI [5] was greater than 100 µM. For the same compound, the GI50 [6] was 81.4 nM, the TGI [6] was 18.8 µM and the GI50 [7] was 53.2 nM. The TGI [7] was greater than 67.6 µM, the GI50 [8] was 22.6 nM and the TGI [8] was 0.0693 µM. It also gave a GI50 [9] of 0.123 µM and a TGI [9] greater than 100 µM.
`O=C(O)c1cn(C2CC2)c2cc(N3CCN(C(=O)Nc4nc(-c5ccc(Cl)cc5)cs4)CC3)c(F)cc2c1=O` was tested, and the GI50 [1] was 4.09 µM, the TGI [1] was greater than 100 µM and the GI50 [2] was 1120 nM. For the same compound, the TGI [2] was greater than 100 µM, the GI50 [3] was 3230 nM and the TGI [3] was 87.7 µM. It also gave a GI50 [4] of 2550 nM, a TGI [4] greater than 100 µM and a GI50 [10] of 3030 nM. The TGI [10] was 23.7 µM, the GI50 [5] was 3.4 µM and the TGI [5] was greater than 100 µM. For the same compound, the GI50 [6] was 567 nM, the TGI [6] was greater than 100 µM and the GI50 [7] was 2240 nM. The TGI [7] was greater than 100 µM, the GI50 [8] was 2550 nM and the TGI [8] was 9.14 µM. For the same compound, the GI50 [9] was 3.61 µM and the TGI [9] was greater than 100 µM.
Compound `CCOC(=O)c1c2c(n3cccc(F)c13)C(=O)c1ncccc1C2=O` has a GI50 [1] of 1.29 µM, a TGI [1] of 15.4 µM and a GI50 [2] of 317 nM. It also gave a TGI [2] of 3.91 µM, a GI50 [3] of 510 nM and a TGI [3] of 5.11 µM. The GI50 [4] was 57.2 nM, the TGI [4] was 1.27 µM and the GI50 [10] was 500 nM. The TGI [10] was 3.69 µM, the GI50 [5] was 1.16 µM and the TGI [5] was 18.7 µM. It also gave a GI50 [6] of 93.2 nM, a TGI [6] of 1.92 µM and a GI50 [7] of 357 nM. The TGI [7] was greater than 100 µM, the GI50 [8] was 394 nM and the TGI [8] was 3.77 µM. For the same compound, the GI50 [9] was 1.8 µM and the TGI [9] was 11.3 µM.
`OCCCNC(=S)Nc1ccc(-c2nc3ccccc3s2)cc1` showed a GI50 [1] of 13.7 µM, a TGI [1] of 26.8 µM and a GI50 [2] of 19900 nM. For the same compound, the TGI [2] was 46.2 µM, the GI50 [3] was 18500 nM and the TGI [3] was 49.6 µM. For the same compound, the GI50 [4] was 32500 nM, the TGI [4] was greater than 100 µM and the GI50 [10] was 14800 nM. For the same compound, the TGI [10] was 45 µM, the GI50 [5] was 20.6 µM and the TGI [5] was 58.3 µM. It also gave a GI50 [6] of 17900 nM, a TGI [6] of 38.2 µM and a GI50 [7] of 29700 nM. For the same compound, the TGI [7] was greater than 100 µM, the GI50 [8] was 12600 nM and the TGI [8] was 38.7 µM. The GI50 [9] was 28.1 µM and the TGI [9] was greater than 100 µM.
